“Also recorded” adds a separate entry of the source.
Legend:
[1] = tested on: cardiac sympathetic neurons; assay: Isolated working rat heart model: neuronal uptake and clearance kinetics
Experimental: The radiotracer was infused into the heart for 10 minutes to measure the tracer uptake rate into cardiac sympathetic neurons (Kup, shown in units of ml/min/g tissue wet). Then, the heart was infused with normal heart perfusate to measure the tracer clearance rate from the heart over 2 hours.
Experiments were conducted to test ^11C-phenoxyethylguanidine (PEG), e.g., to establish baseline values for the NET transport rate (Kup, expressed in units of mL perfusate/min/g wet) and the clearance rate from sympathetic neurons (T1/2, expressed in units of hours).

[2] = tested on: cardiac sympathetic nerve terminals; assay: MicroPET imaging and myocardial kinetics (compartmental modeling, Patlak graphical analysis) in monkeys; assay type: in vivo, rhesus macaque monkey
Experimental: A series of microPET imaging studies were performed in the macaque model to assess image quality and tracer kinetics. In most of these the time course of the metabolic breakdown of [^18F]4F-MHPG in plasma was also determined. The studies are summarized below in Table 1.
During the development of embodiments of the technology provided herein, the kinetics of [^18F]4F-MHPG in monkey hearts was assessed using either compartmental modeling or Patlak graphical analysis to obtain quantitative measures of regional cardiac sympathetic nerve density.
For some analyses, a simplified compartmental model that assumed irreversible trapping inside nerve terminals was used to estimate the model rate constants K1 (ml/min/g), k2 (min^−1), k3 (min^−1), and a blood volume fraction BV (dimensionless) (see, e.g., FIG. 7). In both the control studies and DMI blocking studies, the model quickly converged to a single global minimum in just a few iterations of the nonlinear regression analysis (FIG. 8). […] This aggregate parameter provides a stable measure of cardiac nerve density that declined in a dose-dependent manner with increasing DMI dose (FIG. 9, “Kinetic modeling”).
For some analyses, Patlak graphical analysis was used, which uses a mathematical transformation of the kinetic data Cp(t) and Ct(t) to generate a Tatlak plot′ having a characteristic linear phase (see, e.g., Patlak and Blasberg (1985) “Graphical evaluation of blood-to-brain transfer constants from multiple-time uptake data. Generalizations.” J Cereb Blood Flow 5: 584-90). The slope of the linear portion of a Patlak plot, Kp (ml/min/g), provides an alternate estimate of the ‘net uptake rate constant’ Ki (ml/min/g). Thus, for the model structure used (FIG. 7), the slope of the Patlak plot is given by Kp≈(K1k3)/(k2+k3).
During the development of embodiments of the technology provided herein, the myocardial kinetics of [^18F]4F-MHPG was assessed using Patlak graphical analysis and metabolite-corrected plasma input functions. In this example, the Patlak plot is highly linear (r^2=1.00) and the estimated Patlak slope Kpatlak=0.252 ml/min/g. […] As such, regional estimates of the Patlak slope from Patlak analysis of the kinetics of [^18F]4F-MHPG serve as robust measures of regional cardiac sympathetic nerve density in patients with heart diseases.

[3] = molecular target: T1, norepinephrine transporters (NET) (Macaca mulatta, UniProt Q9MYW8); assay: Desipramine (DMI) block of the neuronal uptake of [18F]4F-MHPG, microPET; assay type: in vivo, rhesus macaque monkey
T1 construct: from tissue; host or cells: heart (presynaptic sympathetic nerve terminals) of living rhesus macaque monkeys, microPET in vivo
From the text: Additional data were collected and Patlak analyses performed.
Orthogonal slice images were acquired for comparison with data from a control study.

[4] = Human radiation absorbed dose estimates, OLINDA/EXM 1.0, from rat biodistribution
Experimental: (§1) During the development of embodiments of the technology provided herein, the biodistribution of [^18F]4F-MHPG into the organs of rats was assessed. In particular, four time points (Table 3) were collected and used to derive human radiation absorbed dose estimates using the OLINDA/EXM 1.0 software package (see, e.g., Stabin et al. (2005) “OLINDA/EXM; the second-generation personal computer software for internal dose assessment in nuclear medicine”, J Nucl Med. 46: 1023-7). […] These values were entered into the Dynamic Bladder model of OLINDA/EXM, assuming a 4.0-hour void interval. Organs with the highest absorbed dose estimates included the urinary bladder wall (0.666 rad/mCi), […] (0.221 rad/mCi), small intestine (0.201 rad/mCi), and the heart wall (0.201 rad/mCi). An ‘effective dose’ of 0.091 rem/mCi was estimated for [^18F]4F-MHPG. Under United States Federal Regulations governing research with a new radiopharmaceutical (21 CFR § 361.1), the maximum allowable radiation absorbed dose to an individual organ (other than the gonads) is 5 rad. Considering the maximum estimated absorbed dose (urinary bladder wall; 0.666 rad/mCi), initial PET studies in human subjects could use a maximum of 7.5 mCi of [^18F]4F-MHPG. This would correspond to an ‘effective dose’ of 0.68 rem.

[5] = MicroPET imaging studies in rats: excretion through the bladder; assay type: in vivo, rat
Experimental: as §1

T1 sequence (Q9MYW8 1-617): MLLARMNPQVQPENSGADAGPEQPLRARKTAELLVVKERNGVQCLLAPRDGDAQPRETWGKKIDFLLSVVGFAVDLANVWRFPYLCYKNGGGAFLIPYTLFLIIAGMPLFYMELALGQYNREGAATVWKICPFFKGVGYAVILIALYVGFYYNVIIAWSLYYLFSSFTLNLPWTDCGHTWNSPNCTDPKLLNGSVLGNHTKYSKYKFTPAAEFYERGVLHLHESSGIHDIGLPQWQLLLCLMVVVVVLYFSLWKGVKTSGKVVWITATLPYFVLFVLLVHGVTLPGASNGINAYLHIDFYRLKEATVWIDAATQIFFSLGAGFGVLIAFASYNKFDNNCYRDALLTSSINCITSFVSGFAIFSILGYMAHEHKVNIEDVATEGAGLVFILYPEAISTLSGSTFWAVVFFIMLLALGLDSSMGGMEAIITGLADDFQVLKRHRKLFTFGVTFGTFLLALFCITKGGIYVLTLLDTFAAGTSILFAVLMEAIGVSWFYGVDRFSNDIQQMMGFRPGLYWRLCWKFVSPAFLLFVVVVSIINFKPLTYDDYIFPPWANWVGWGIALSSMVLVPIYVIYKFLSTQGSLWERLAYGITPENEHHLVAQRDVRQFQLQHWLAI

Compound: N=C(N)NCCc1ccc(F)c(O)c1 [[^18F]4F-MHPG] [4-[^18F]fluoro-meta-hydroxy-phenethylguanidine]
- kinetics compared with [11C]4F-MHPG [1]: almost identical
- net uptake rate constant Ki = (K1k3)/(k2+k3) ([2]; compartmental modeling, control studies, monkey heart): 0.341 ± 0.041 mL/min/g
- average measured Patlak slope Kp ([2]; control studies, FIG. 11): 0.302 ± 0.031 mL/min/g
- in vivo defluorination ([2]; faint uptake in spinal column bones): little in vivo defluorination
- liver uptake compared with [11C]HED or [123I]MIBG ([2]; microPET control studies): much lower
- uptake in the lungs and liver ([2]; microPET control studies): very low uptake
- estimated Patlak slope Kpatlak ([2]; one control study, rhesus macaque, FIG. 10): 0.252 mL/min/g
- specificity of myocardial uptake for cardiac sympathetic neurons ([3]; control vs DMI block): 100%
- nonspecific binding in heart tissue ([3]; highest dose DMI block study): very low; also recorded: extremely low
- effective dose for a maximum of 7.5 mCi ([4]; initial PET studies in human subjects, 7.5 mCi): 0.68 rem
- Effective dose ([4]; reference adult male model): 0.091 rem/mCi
- Effective dose, Dose for 10 mCi ([4]; reference adult male model): 0.91 rem
- Radiation absorbed dose estimate, Dose for 10 mCi, Adrenals ([4]; reference adult male model): 0.59 rad
- Radiation absorbed dose estimate, Dose for 10 mCi, Brain ([4]; reference adult male model): 0.25 rad
- Radiation absorbed dose estimate, Dose for 10 mCi, Breasts ([4]; reference adult male model): 0.26 rad
- Radiation absorbed dose estimate, Dose for 10 mCi, Gallbladder wall ([4]; reference adult male model): 0.61 rad
- Radiation absorbed dose estimate, Dose for 10 mCi, Heart wall ([4]; reference adult male model): 1.09 rad
- Radiation absorbed dose estimate, Dose for 10 mCi, Kidneys ([4]; reference adult male model): 0.78 rad
- Radiation absorbed dose estimate, Dose for 10 mCi, LLI wall ([4]; reference adult male model): 1.07 rad
- Radiation absorbed dose estimate, Dose for 10 mCi, Liver ([4]; reference adult male model): 0.96 rad
- Radiation absorbed dose estimate, Dose for 10 mCi, Lungs ([4]; reference adult male model): 0.35 rad
- Radiation absorbed dose estimate, Dose for 10 mCi, Muscle ([4]; reference adult male model): 0.37 rad
- Radiation absorbed dose estimate, Dose for 10 mCi, Osteogenic cells ([4]; reference adult male model): 0.49 rad
- Radiation absorbed dose estimate, Dose for 10 mCi, Ovaries ([4]; reference adult male model): 0.88 rad
- Radiation absorbed dose estimate, Dose for 10 mCi, Pancreas ([4]; reference adult male model): 0.63 rad
- Radiation absorbed dose estimate, Dose for 10 mCi, Red marrow ([4]; reference adult male model): 0.37 rad
- Radiation absorbed dose estimate, Dose for 10 mCi, Skin ([4]; reference adult male model): 0.26 rad
- Radiation absorbed dose estimate, Dose for 10 mCi, Small intestine ([4]; reference adult male model): 2.01 rad
- Radiation absorbed dose estimate, Dose for 10 mCi, Spleen ([4]; reference adult male model): 0.79 rad
- Radiation absorbed dose estimate, Dose for 10 mCi, Stomach wall ([4]; reference adult male model): 0.48 rad
- Radiation absorbed dose estimate, Dose for 10 mCi, Testes ([4]; reference adult male model): 0.41 rad
- Radiation absorbed dose estimate, Dose for 10 mCi, Thymus ([4]; reference adult male model): 0.33 rad
- Radiation absorbed dose estimate, Dose for 10 mCi, Thyroid ([4]; reference adult male model): 0.29 rad
- Radiation absorbed dose estimate, Dose for 10 mCi, Total body ([4]; reference adult male model): 0.41 rad
- Radiation absorbed dose estimate, Dose for 10 mCi, ULI wall ([4]; reference adult male model): 2.21 rad
- Radiation absorbed dose estimate, Dose for 10 mCi, Urinary bladder wall ([4]; reference adult male model): 6.66 rad
- Radiation absorbed dose estimate, Dose for 10 mCi, Uterus ([4]; reference adult male model): 1.03 rad
- Radiation absorbed dose estimate, Total dose, Adrenals ([4]; reference adult male model): 0.059 rad/mCi
- Radiation absorbed dose estimate, Total dose, Brain ([4]; reference adult male model): 0.025 rad/mCi
- Radiation absorbed dose estimate, Total dose, Breasts ([4]; reference adult male model): 0.026 rad/mCi
- Radiation absorbed dose estimate, Total dose, Gallbladder wall ([4]; reference adult male model): 0.061 rad/mCi
- Radiation absorbed dose estimate, Total dose, Heart wall ([4]; reference adult male model): 0.109 rad/mCi
- Radiation absorbed dose estimate, Total dose, Kidneys ([4]; reference adult male model): 0.078 rad/mCi
- Radiation absorbed dose estimate, Total dose, LLI wall ([4]; reference adult male model): 0.107 rad/mCi
- Radiation absorbed dose estimate, Total dose, Liver ([4]; reference adult male model): 0.096 rad/mCi
- Radiation absorbed dose estimate, Total dose, Lungs ([4]; reference adult male model): 0.035 rad/mCi
- Radiation absorbed dose estimate, Total dose, Muscle ([4]; reference adult male model): 0.037 rad/mCi
- Radiation absorbed dose estimate, Total dose, Osteogenic cells ([4]; reference adult male model): 0.049 rad/mCi
- Radiation absorbed dose estimate, Total dose, Ovaries ([4]; reference adult male model): 0.088 rad/mCi
- Radiation absorbed dose estimate, Total dose, Pancreas ([4]; reference adult male model): 0.063 rad/mCi
- Radiation absorbed dose estimate, Total dose, Red marrow ([4]; reference adult male model): 0.037 rad/mCi
- Radiation absorbed dose estimate, Total dose, Skin ([4]; reference adult male model): 0.026 rad/mCi
- Radiation absorbed dose estimate, Total dose, Small intestine ([4]; reference adult male model): 0.201 rad/mCi
- Radiation absorbed dose estimate, Total dose, Spleen ([4]; reference adult male model): 0.079 rad/mCi
- Radiation absorbed dose estimate, Total dose, Stomach wall ([4]; reference adult male model): 0.048 rad/mCi
- Radiation absorbed dose estimate, Total dose, Testes ([4]; reference adult male model): 0.041 rad/mCi
- Radiation absorbed dose estimate, Total dose, Thymus ([4]; reference adult male model): 0.033 rad/mCi
- Radiation absorbed dose estimate, Total dose, Thyroid ([4]; reference adult male model): 0.029 rad/mCi
- Radiation absorbed dose estimate, Total dose, Total body ([4]; reference adult male model): 0.041 rad/mCi
- Radiation absorbed dose estimate, Total dose, ULI wall ([4]; reference adult male model): 0.221 rad/mCi
- Radiation absorbed dose estimate, Total dose, Urinary bladder wall ([4]; reference adult male model): 0.666 rad/mCi
- Radiation absorbed dose estimate, Total dose, Uterus ([4]; reference adult male model): 0.103 rad/mCi
- biological half-time of excretion through the bladder [5]: 0.20±0.02 hours
- injected dose excreted through the bladder [5]: 19.9±0.2%

Source: patent US10259781B2, “Imaging agents” (THE REGENTS OF THE UNIVERSITY OF MICHIGAN, priority 2012, dated 2019)
